# According to EPA's ToxRefDB 2:
# Legend:
# mouse [1] = settings: Subchronic oral toxicity in rodents, b6c3f1, Gavage/Intubation, dose end: 14 week, group: systemic
# mouse [2] = settings: Combined chronic toxicity/carcinogenicity, b6c3f1, Oral, Gavage/Intubation, dose end: 105 week, group: systemic
# rat [3] = settings: Prenatal developmental toxicity study; sprague dawley; Oral; Gavage/Intubation; dose end: 20 GD; group: maternal; systemic / in life observation / body weight / body weight gain
# rat [4] = settings: Combined chronic toxicity/carcinogenicity, fischer, Oral, Water, dose end: 24 month, group: systemic
# rat [5] = settings: Developmental neurotoxicity study; sprague dawley; Oral; Gavage/Intubation; dose end: 77 PND; group: cannot be grouped; systemic / in life observation / body weight / body weight
# rat [6] = settings: Developmental neurotoxicity study, fischer, Oral, Gavage/Intubation, dose end: 22 PND, group: cannot be grouped
# mouse [7] = settings: Prenatal developmental toxicity study, cd1, Oral, Gavage/Intubation, dose end: 17 GD
# rat [8] = settings: Neurotoxicity screening battery; long evans; Injection; Intraperitoneal; dose end: 13 week; group: cannot be grouped; systemic / in life observation / clinical signs / abnormal gait + systemic / in life observation / clinical signs / irritability + systemic…
# rat [9] = settings: Subchronic oral toxicity in rodents, fischer, Water, dose end: 93 day
# rat [10] = settings: Developmental neurotoxicity study; wistar; Oral; Gavage/Intubation; dose end: 91 PND; group: cannot be grouped; systemic / in life observation / body weight / body weight + systemic / in life observation / body weight / body weight gain + systemic / in…
# mouse [11] = settings: Multigenerational reproductive toxicity study, cd1, Oral, Water, dose end: 2 generation
# [12] = systemic / hematology / erythrocyte (rbc) count differential / erythrocyte (rbc) + systemic / hematology / hematocrit (hct) / hematocrit (…
# [13] = systemic / hematology / hemoglobin (hgb) / hemoglobin (hgb)
# [14] = systemic / pathology microscopic / ovary / atrophy + systemic / pathology microscopic / ovary / cyst + systemic / pathology microscopic / …
# [15] = systemic / pathology microscopic / ovary / cyst + systemic / pathology microscopic / harderian gland / adenoma
# [16] = systemic / pathology microscopic / testes / mesothelioma nos + systemic / pathology microscopic / brain / astrocytoma nos + systemic / …
# [17] = systemic / in life observation / body weight / offspring (pup) weight + reproductive / reproductive performance / pregnancy index / …
# [18] = group: developmental, systemic / in life observation / body weight / fetal weight
# [19] = group: maternal, systemic / in life observation / body weight / body weight gain + systemic / in life observation / clinical signs / splayed hindlimbs + …
# [20] = group: cholinesterase, cholinesterase / cholinesterase / cholinesterase / cholinesterase (che)
# [21] = group: systemic, systemic / clinical chemistry / alkaline phosphatase (alp/alk) / alkaline phosphatase (alp/alk) + systemic / hematology / erythrocyte (rbc) …
# [22] = group: parental, systemic / in life observation / body weight / body weight + systemic / organ weight / adrenal gland / absolute + systemic / organ weight / …
# [23] = group: reproductive, reproductive / offspring survival early / live fetuses / live fetuses
smiles,measurement,setting,value
C=CC#N [Acrylonitrile],LOAEL,mouse [1]; [12],> 60 mg/kg/day
same,NOAEL,mouse [1]; [12],≥ 60 mg/kg/day
same,LEL,mouse [1]; [13],5 mg/kg/day
same,NEL,mouse [1]; [13],< 5 mg/kg/day
same,LOAEL,mouse [2]; [14],10 mg/kg/day
same,NOAEL,mouse [2]; [14],2.5 mg/kg/day
same,LEL,mouse [2]; [15],2.5 mg/kg/day
same,NEL,mouse [2]; [15],< 2.5 mg/kg/day
C=CC(N)=O [Acrylamide],LEL,rat [3],7.5 mg/kg/day
same,LOAEL,rat [3],7.5 mg/kg/day
same,NEL,rat [3],2.5 mg/kg/day
same,NOAEL,rat [3],2.5 mg/kg/day
same,LEL,rat [4]; systemic / pathology microscopic / testes / mesothelioma nos,0.1 mg/kg/day
same,LOAEL,rat [4]; [16],> 2 mg/kg/day
same,NEL,rat [4]; [16],0.01 mg/kg/day
same,NOAEL,rat [4]; [16],≥ 2 mg/kg/day
same,LEL,rat [5],5 mg/kg/day
same,LOAEL,rat [5],5 mg/kg/day
same,NEL,rat [5],< 5 mg/kg/day
same,NOAEL,rat [5],< 5 mg/kg/day
same,LEL,rat [6]; systemic / in life observation / body weight / offspring (pup) weight,1 mg/kg/day
same,NEL,rat [6]; systemic / in life observation / body weight / offspring (pup) weight + developmental / developmental landmark / pinna unfolding / pinna …,0.5 mg/kg/day
same,LOAEL,rat [6]; [17],> 10 mg/kg/day
same,NOAEL,rat [6]; [17],≥ 10 mg/kg/day
same,LEL,mouse [7]; [18],45 mg/kg/day
same,LOAEL,mouse [7]; [18],> 45 mg/kg/day
same,NEL,mouse [7]; [18],15 mg/kg/day
same,NOAEL,mouse [7]; [18],≥ 45 mg/kg/day
same,LOAEL,mouse [7]; [19],> 45 mg/kg/day
same,NEL,mouse [7]; [19],3 mg/kg/day
same,NOAEL,mouse [7]; [19],≥ 45 mg/kg/day
same,LEL,"mouse [7]; group: maternal, systemic / organ weight / uterus / nos",15 mg/kg/day
same,LEL,rat [8],1 mg/kg/day
same,LOAEL,rat [8],> 12 mg/kg/day
same,NEL,rat [8],< 1 mg/kg/day
same,NOAEL,rat [8],≥ 12 mg/kg/day
same,LEL,rat [9]; [20],20 mg/kg/day
same,LOAEL,rat [9]; [20],> 20 mg/kg/day
same,NEL,rat [9]; [20],5 mg/kg/day
same,NOAEL,rat [9]; [20],≥ 20 mg/kg/day
same,LOAEL,rat [9]; [21],> 20 mg/kg/day
same,NOAEL,rat [9]; [21],≥ 20 mg/kg/day
same,NEL,"rat [9]; group: systemic, systemic / hematology / erythrocyte (rbc) count differential / erythrocyte (rbc) + systemic / hematology / hematocrit (hct) / hematocrit (…",0.2 mg/kg/day
same,LEL,"rat [9]; group: systemic, systemic / pathology microscopic / nerve / [other]",1 mg/kg/day
same,LEL,rat [10],25 mg/kg/day
same,LOAEL,rat [10],> 25 mg/kg/day
same,NEL,rat [10],< 25 mg/kg/day
same,NOAEL,rat [10],≥ 25 mg/kg/day
same,LOAEL,mouse [11]; [22],> 7.7 mg/kg/day
same,NEL,mouse [11]; [22],0.86 mg/kg/day
same,NOAEL,mouse [11]; [22],≥ 7.7 mg/kg/day
same,LEL,"mouse [11]; group: parental, systemic / organ weight / adrenal gland / absolute + systemic / organ weight / kidney / absolute + systemic / organ weight / liver / …",2.9 mg/kg/day
same,LEL,mouse [11]; [23],7.7 mg/kg/day
same,LOAEL,mouse [11]; [23],> 7.7 mg/kg/day
same,NOAEL,mouse [11]; [23],≥ 7.7 mg/kg/day
